Results as given in ChEMBL document CHEMBL1139510, “Early absorption and distribution analysis of antitumor and anti-AIDS drugs: lipid membrane and plasma protein interactions” (J Med Chem, 2005).

How the values were obtained:
Assay type in all cases: ADME
Albumin [1] = biological target: T1, Albumin (Homo sapiens, UniProt P02768); assay: Dissociation rate constant for the interaction between the compound and serum albumin
Albumin [2] = biological target: T1, Albumin; assay: Equilibrium dissociation constant for the interaction between the compound and serum albumin
Albumin [3] = biological target: T1, Albumin; assay: Association rate constant for the interaction between the compound and serum albumin

T1 sequence (P02768 whole entry): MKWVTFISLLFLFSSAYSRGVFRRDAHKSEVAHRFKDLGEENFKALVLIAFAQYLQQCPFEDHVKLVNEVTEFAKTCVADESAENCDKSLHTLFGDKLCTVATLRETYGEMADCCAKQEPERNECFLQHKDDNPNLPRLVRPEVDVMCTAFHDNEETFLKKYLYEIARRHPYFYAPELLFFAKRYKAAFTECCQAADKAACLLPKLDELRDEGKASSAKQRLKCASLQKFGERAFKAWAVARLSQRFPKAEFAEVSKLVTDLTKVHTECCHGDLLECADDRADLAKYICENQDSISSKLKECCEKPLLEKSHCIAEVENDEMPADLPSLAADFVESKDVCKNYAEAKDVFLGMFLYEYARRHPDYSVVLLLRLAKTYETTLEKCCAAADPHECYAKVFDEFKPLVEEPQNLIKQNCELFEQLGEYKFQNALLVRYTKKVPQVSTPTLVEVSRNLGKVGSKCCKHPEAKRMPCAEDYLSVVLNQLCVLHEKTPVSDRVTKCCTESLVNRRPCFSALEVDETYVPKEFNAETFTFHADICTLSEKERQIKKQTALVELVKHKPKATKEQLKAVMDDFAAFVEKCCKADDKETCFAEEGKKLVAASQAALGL

SMILES	Koff1 (Albumin [1]) [s⁻¹]	Koff2 (Albumin [1]) [s⁻¹]	Kd (Albumin [2]; read-out: KD1) [µM]	Kd (Albumin [2]; read-out: KD2) [µM]	kon (Albumin [3]; read-out: Kon1) [M⁻¹ s⁻¹]	kon (Albumin [3]; read-out: Kon2) [M⁻¹ s⁻¹]
CC(C)(C)NC(=O)[C@@H]1C[C@@H]2CCCC[C@@H]2CN1C[C@@H](O)[C@H](Cc1ccccc1)NC(=O)[C@H](CC(N)=O)NC(=O)c1ccc2ccccc2n1	0.856	0.085	34	301	25000	282
CC(C)CN(C[C@@H](O)[C@H](Cc1ccccc1)NC(=O)O[C@H]1CCOC1)S(=O)(=O)c1ccc(N)cc1	2.75	0.068	124	328	22100	208
CC(=O)O[C@@]1(C2/C(C)=C(/O)C(=O)C3=C(C)[C@@H](OC(=O)[C@H](O)[C@H](CC(C)C)NC(=O)OC(C)(C)C)C[C@@](O)([C@H]2OC(=O)c2ccccc2)C3(C)C)CO[C@@H]1CCO (stereo partly specified)	1.875	0.045	319	1820	5900	33.1
CC(=O)O[C@H]1C(=O)[C@@]2(C)C([C@H](OC(=O)c3ccccc3)[C@]3(O)C[C@H](OC(=O)[C@H](O)[C@@H](NC(=O)c4ccccc4)c4ccccc4)C(C)=C1C3(C)C)[C@]1(OC(C)=O)CO[C@@H]1C[C@@H]2OC(=O)CCC(=O)O (stereo partly specified)	1.183	0.033	192	1170	7300	36.4
Cc1c(O)cccc1C(=O)N[C@@H](CSc1ccccc1)[C@H](O)CN1C[C@H]2CCCC[C@H]2C[C@H]1C(=O)NC(C)(C)C	0.413		230	6	1800	12.6
COC(=O)N[C@H](C(=O)N[C@@H](Cc1ccccc1)[C@@H](O)CN(Cc1ccc(-c2ccccn2)cc1)NC(=O)[C@@H](NC(=O)OC)C(C)(C)C)C(C)(C)C [ATAZANAVIR]	1.43	0.025	149	599	9600	41.8
CC(=O)O[C@@]12CO[C@@H]1C[C@H](O)[C@@]1(C)C(=O)[C@H](O)C3=C(C)[C@@H](OC(=O)[C@H](O)[C@@H](NC(=O)OC(C)(C)C)c4ccccc4)C[C@@](O)([C@@H](OC(=O)c4ccccc4)[C@H]21)C3(C)C.O.O.O [DOCETAXEL]	1.505	0.069	199	2110	7700	43.7
Cc1cccc(C)c1OCC(=O)N[C@@H](Cc1ccccc1)[C@@H](O)C[C@H](Cc1ccccc1)NC(=O)[C@H](C(C)C)N1CCCNC1=O [LOPINAVIR]	0.619		24	6	25900	10.1
